14 molecules from ChEMBL document CHEMBL3991601, “The target landscape of clinical kinase drugs” (Science, 2017) can be followed below.

Experiment [1] has as its target Uncharacterized aarF domain-containing protein kinase 5 (Homo sapiens, UniProt Q3MIX3).
In experiment [2] the target is Dual specificity protein kinase CLK4 (Homo sapiens, UniProt Q9HAZ1).
A further experiment concerns the target T1, Ephrin type-A receptor 1 (Homo sapiens, UniProt P21709).
T1 sequence (P21709 whole entry): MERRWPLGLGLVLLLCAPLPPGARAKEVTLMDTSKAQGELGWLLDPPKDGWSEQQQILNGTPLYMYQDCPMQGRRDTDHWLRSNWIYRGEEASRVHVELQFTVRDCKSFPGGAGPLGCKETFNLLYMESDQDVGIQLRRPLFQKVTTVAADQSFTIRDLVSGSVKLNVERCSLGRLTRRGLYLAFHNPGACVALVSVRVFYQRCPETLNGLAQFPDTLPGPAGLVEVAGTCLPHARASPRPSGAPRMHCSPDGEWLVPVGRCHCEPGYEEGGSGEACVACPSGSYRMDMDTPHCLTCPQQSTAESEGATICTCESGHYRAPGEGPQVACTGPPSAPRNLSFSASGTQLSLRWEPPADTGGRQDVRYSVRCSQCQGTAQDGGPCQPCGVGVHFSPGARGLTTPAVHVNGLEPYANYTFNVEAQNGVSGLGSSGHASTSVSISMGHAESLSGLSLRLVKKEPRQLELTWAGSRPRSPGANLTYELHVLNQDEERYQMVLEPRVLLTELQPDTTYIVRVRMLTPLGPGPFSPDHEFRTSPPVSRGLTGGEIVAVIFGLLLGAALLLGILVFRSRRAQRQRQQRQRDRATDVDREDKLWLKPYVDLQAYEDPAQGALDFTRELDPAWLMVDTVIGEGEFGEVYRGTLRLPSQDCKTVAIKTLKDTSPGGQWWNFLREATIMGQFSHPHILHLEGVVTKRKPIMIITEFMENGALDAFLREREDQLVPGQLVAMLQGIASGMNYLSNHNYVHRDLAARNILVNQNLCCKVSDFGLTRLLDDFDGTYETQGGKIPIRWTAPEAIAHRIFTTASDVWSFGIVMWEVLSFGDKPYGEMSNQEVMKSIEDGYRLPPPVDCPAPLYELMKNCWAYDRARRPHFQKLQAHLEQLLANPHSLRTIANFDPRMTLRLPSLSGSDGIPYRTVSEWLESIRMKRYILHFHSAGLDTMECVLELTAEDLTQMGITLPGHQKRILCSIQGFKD

The target of experiment [3] is Serine/threonine-protein kinase Nek7 (Homo sapiens, UniProt Q8TDX7).
Chain of Serine/threonine-protein kinase Nek7 (Q8TDX7 whole entry): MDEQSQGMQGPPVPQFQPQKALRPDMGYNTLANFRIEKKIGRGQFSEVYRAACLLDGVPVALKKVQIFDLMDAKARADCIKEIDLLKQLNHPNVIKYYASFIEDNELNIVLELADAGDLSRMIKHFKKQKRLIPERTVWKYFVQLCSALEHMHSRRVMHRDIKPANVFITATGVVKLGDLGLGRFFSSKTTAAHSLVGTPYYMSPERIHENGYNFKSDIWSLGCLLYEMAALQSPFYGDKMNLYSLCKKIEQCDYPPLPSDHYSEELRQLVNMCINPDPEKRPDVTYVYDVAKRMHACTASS
The target of experiment [4] is High affinity nerve growth factor receptor (Homo sapiens, UniProt P04629).
Chain of High affinity nerve growth factor receptor (P04629 whole entry): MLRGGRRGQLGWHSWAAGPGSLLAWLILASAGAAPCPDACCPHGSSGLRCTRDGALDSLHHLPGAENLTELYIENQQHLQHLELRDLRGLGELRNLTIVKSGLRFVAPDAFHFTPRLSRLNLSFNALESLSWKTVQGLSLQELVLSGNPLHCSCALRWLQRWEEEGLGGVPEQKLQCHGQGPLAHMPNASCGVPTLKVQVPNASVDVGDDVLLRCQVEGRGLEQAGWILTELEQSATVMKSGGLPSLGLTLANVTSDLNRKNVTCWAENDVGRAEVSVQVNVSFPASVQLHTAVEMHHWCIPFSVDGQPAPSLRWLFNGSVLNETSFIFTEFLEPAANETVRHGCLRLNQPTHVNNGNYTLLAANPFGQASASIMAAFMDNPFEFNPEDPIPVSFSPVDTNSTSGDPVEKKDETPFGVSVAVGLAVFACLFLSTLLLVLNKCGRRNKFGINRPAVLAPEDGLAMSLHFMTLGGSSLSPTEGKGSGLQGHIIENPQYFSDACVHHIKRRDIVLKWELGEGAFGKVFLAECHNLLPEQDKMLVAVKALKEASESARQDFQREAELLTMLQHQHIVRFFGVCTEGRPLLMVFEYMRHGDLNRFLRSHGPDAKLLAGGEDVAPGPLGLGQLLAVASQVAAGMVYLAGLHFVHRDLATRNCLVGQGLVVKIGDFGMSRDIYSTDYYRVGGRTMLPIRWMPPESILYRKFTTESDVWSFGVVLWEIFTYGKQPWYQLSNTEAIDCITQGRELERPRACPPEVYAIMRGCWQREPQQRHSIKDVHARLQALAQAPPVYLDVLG
Experiment [5] has as its target Serine/threonine-protein kinase PAK 6 (Homo sapiens, UniProt Q9NQU5).
Experiment [6] has as its target Membrane-associated progesterone receptor component 1 (Homo sapiens, UniProt O00264).
The target of experiment [7] is Protein kinase C theta type (Homo sapiens, UniProt Q04759).
Chain of Protein kinase C theta type (Q04759 whole entry): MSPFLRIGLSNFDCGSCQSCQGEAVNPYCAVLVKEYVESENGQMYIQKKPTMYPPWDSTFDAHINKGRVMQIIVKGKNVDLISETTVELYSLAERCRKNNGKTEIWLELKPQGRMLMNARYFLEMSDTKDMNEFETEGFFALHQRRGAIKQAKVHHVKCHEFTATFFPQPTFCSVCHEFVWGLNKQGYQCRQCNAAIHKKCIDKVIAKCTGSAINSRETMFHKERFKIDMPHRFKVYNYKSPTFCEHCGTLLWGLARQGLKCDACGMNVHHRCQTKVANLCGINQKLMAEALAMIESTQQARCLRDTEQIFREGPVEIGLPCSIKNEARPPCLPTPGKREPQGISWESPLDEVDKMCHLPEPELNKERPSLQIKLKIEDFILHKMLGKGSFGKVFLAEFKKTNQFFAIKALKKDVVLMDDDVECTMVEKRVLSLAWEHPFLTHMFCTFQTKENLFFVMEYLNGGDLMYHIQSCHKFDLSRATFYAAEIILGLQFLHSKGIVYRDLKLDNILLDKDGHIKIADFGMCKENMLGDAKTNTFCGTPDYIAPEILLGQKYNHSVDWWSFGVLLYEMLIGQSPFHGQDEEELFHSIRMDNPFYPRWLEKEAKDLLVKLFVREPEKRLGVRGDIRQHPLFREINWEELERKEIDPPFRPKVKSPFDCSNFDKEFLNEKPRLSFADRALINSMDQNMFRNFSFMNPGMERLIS
Experiment [8] deals with Dual specificity testis-specific protein kinase 1 (Homo sapiens, UniProt Q15569).
Chain of Dual specificity testis-specific protein kinase 1 (Q15569 whole entry): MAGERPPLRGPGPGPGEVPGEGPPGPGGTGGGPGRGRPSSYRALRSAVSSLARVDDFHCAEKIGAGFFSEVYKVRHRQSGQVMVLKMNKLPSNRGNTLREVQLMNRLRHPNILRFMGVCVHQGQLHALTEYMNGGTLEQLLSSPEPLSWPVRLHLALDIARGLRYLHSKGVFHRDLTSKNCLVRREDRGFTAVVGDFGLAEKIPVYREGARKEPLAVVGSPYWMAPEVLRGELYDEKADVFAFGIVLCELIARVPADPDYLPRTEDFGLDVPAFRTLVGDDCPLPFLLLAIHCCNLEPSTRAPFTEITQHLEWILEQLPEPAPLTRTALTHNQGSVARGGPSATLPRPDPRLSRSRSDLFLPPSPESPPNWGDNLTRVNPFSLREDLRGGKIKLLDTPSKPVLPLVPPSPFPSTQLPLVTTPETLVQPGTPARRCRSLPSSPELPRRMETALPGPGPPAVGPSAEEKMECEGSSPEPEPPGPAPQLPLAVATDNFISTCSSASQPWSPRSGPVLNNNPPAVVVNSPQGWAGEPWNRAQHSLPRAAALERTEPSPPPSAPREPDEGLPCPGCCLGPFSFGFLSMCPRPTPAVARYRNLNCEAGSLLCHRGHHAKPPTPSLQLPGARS
The target in experiment [9] is T2, Protein kinase C zeta type (Homo sapiens, UniProt Q05513).
T2 sequence (Q05513 whole entry): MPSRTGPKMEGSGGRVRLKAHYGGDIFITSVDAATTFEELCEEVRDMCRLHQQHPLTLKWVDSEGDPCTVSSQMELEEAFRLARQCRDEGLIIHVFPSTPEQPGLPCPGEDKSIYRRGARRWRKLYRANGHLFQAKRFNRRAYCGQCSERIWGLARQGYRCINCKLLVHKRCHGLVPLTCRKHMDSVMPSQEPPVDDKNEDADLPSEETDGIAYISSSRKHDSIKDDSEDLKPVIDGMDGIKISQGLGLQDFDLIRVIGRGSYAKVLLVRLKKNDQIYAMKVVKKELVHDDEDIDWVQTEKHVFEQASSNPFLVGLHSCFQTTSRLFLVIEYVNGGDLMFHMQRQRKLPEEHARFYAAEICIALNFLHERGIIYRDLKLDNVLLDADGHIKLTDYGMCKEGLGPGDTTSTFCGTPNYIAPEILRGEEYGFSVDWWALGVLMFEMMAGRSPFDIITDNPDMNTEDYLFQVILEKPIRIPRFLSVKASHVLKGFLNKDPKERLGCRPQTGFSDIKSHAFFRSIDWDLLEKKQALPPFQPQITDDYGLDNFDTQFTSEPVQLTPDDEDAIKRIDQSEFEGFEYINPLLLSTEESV

In experiment [10] the target is T3, Thyroid hormone receptor-associated protein 3 (Homo sapiens, UniProt Q9Y2W1).
T3 sequence (Q9Y2W1 whole entry): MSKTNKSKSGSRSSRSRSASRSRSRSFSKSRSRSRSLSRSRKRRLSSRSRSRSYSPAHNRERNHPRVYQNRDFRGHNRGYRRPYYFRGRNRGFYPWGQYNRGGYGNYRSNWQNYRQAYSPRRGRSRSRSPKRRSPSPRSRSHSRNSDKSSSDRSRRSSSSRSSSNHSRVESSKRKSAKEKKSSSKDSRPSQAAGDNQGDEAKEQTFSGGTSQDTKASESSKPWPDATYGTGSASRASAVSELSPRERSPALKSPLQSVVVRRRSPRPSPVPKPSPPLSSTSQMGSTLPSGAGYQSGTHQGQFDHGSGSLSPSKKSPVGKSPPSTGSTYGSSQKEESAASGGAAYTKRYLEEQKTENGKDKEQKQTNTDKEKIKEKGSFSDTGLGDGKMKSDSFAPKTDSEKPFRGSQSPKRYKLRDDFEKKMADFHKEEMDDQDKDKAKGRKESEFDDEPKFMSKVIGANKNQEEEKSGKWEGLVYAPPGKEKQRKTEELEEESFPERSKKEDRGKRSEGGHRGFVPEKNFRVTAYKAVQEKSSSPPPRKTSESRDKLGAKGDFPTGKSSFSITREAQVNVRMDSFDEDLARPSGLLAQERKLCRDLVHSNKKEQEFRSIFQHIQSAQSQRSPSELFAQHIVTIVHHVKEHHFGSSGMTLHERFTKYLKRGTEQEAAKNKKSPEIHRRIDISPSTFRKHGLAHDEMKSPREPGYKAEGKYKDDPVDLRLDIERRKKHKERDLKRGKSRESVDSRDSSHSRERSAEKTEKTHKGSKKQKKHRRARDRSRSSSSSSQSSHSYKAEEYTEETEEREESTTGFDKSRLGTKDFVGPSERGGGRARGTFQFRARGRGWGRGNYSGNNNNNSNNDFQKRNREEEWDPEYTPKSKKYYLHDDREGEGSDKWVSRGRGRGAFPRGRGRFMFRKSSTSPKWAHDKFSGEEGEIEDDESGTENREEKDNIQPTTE

The target in the next experiment is Ephrin type-A receptor 7 (Homo sapiens, UniProt Q15375).

Molecules are shown by their SMILES. pKd: −log10 of the molar value. Calls of active or inactive are those of the source. Where only a bound is given, the exact number is not on record here.

As usually defined, the Kd is the free concentration of one partner at which half of the binding sites on the other are occupied at equilibrium, for simple one-to-one binding. The term pKd denotes the negative decadic logarithm of the Kd, by convention in mol/L. A high value points to a small Kd.
Note: in the data inactive means no Kd found up to 30 µM.

Chain of Dual specificity protein kinase CLK4 (Q9HAZ1 whole entry): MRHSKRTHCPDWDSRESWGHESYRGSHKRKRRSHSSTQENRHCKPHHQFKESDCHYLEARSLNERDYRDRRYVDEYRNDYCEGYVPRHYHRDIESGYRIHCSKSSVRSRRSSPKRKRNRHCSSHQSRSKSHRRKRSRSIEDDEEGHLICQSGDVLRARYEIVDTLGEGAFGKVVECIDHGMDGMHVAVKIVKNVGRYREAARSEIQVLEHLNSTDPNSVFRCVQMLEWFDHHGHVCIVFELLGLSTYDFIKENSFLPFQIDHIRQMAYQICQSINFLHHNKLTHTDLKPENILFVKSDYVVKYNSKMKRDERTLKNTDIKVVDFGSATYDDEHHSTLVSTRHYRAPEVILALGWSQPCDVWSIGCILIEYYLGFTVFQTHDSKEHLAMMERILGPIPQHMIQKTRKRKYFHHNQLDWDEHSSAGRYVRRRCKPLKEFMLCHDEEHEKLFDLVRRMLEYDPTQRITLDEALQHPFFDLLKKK
Chain of Membrane-associated progesterone receptor component 1 (O00264 whole entry): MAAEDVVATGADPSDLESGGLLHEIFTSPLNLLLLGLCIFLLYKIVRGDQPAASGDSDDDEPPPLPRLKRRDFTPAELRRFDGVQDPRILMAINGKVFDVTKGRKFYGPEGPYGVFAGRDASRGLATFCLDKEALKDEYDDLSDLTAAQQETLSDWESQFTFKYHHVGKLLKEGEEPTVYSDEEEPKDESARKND
Chain of Uncharacterized aarF domain-containing protein kinase 5 (Q3MIX3 whole entry, the tested form may be a part): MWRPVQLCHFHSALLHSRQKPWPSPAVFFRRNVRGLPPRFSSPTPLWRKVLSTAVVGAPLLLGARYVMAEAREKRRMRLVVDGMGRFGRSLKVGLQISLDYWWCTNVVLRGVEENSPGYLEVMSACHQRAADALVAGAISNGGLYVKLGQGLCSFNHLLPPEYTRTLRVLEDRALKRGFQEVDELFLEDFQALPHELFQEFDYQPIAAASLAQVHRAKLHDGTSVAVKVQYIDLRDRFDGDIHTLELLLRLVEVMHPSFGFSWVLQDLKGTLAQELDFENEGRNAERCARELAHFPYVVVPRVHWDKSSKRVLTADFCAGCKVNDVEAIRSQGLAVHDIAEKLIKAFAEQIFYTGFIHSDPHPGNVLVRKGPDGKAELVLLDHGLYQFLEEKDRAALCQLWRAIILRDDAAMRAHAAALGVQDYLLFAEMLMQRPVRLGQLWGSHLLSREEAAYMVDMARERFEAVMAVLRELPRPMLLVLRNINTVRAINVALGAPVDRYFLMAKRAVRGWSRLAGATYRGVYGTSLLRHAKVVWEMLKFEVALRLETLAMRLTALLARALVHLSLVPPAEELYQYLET
Chain of Serine/threonine-protein kinase PAK 6 (Q9NQU5 whole entry): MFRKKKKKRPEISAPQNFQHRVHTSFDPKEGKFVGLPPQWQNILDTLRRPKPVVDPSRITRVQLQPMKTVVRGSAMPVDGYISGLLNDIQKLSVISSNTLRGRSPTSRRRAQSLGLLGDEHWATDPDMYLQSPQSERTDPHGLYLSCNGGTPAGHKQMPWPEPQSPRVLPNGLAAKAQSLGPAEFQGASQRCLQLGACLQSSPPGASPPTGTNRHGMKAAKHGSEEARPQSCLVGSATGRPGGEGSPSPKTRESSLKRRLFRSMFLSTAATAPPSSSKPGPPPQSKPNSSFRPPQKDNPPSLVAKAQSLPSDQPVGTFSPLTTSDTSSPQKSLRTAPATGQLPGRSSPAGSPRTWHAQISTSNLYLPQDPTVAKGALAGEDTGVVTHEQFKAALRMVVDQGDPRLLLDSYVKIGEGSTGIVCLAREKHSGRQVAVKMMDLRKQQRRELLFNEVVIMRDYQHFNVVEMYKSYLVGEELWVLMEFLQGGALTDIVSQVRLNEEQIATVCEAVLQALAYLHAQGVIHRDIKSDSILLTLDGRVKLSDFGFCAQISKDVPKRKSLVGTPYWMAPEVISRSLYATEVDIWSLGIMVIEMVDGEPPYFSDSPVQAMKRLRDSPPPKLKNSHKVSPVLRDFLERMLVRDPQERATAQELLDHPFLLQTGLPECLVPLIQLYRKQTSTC

Consider `CC(C)Nc1cc(-c2c[nH]c(C(=O)N[C@H](CO)c3cccc(Cl)c3)c2)c(Cl)cn1` [ULIXERTINIB], for which the Kd (in [1]; in experiment [2]; on Ephrin type-A receptor 1; in experiment [3]; in [4]; in [5]) was > 30 µM (inactive) throughout. Also, the Kd in experiment [6], in [7] and in [8] was > 30 µM (inactive) throughout.
With `Cc1cn(-c2cc(NC(=O)c3ccc(C)c(Nc4nccc(-c5cccnc5)n4)c3)cc(C(F)(F)F)c2)cn1` [NILOTINIB], the Kd in experiment [6], in experiment [9] and in experiment [10] was > 30 µM (inactive) throughout.
`CN1CC[C@@H](c2c(O)cc(O)c3c(=O)cc(-c4ccccc4Cl)oc23)[C@@H]1CO`: the Kd (in [2]; on Ephrin type-A receptor 1; at Ephrin type-A receptor 7; in experiment [3]; in experiment [4]; in experiment [5]) was > 30 µM (inactive) each time. Further, the Kd in experiment [7], in experiment [8] and in experiment [10] was > 30 µM (inactive) throughout.
For `C=CC(=O)N1CCC(Oc2cc3c(Nc4ccc(Cl)c(Cl)c4F)ncnc3cc2OC)CC1` [POZIOTINIB], the Kd (at Ephrin type-A receptor 7; in [4]; in experiment [5]; in experiment [9]; in [8]) was > 30 µM (inactive) in each case.
For `Nc1nc(N)c2nc(-c3cccc(O)c3)c(-c3cccc(O)c3)nc2n1` [TG100-115], the Kd in experiment [9] and in [10] was > 30 µM (inactive) each time.
Take `CN1CCN(c2ccc3nc(-c4c(N)c5c(F)cccc5[nH]c4=O)[nH]c3c2)CC1` [DOVITINIB]: the Kd in experiment [1], in experiment [6] and in experiment [9] was > 30 µM (inactive) each time.
Regarding `CNC(=O)c1ccc(-c2cnc3ncc(Cc4ccc5ncccc5c4)n3n2)cc1F` [CAPMATINIB], the Kd (in experiment [1]; at Ephrin type-A receptor 1; on Ephrin type-A receptor 7; in [3]; in experiment [4]; in [5]) was > 30 µM (inactive) in each case. Moreover, the Kd in [7], in experiment [9] and in experiment [8] was > 30 µM (inactive) throughout.
As for `CCn1c(-c2nonc2N)nc2c(C#CC(C)(C)O)ncc(OC[C@H]3CCCNC3)c21` [GSK-690693], the Kd in experiment [6], in experiment [9] and in experiment [10] was > 30 µM (inactive) throughout.
As for `CCc1cnn2c(NCc3ccc[n+]([O-])c3)cc(N3CCCC[C@H]3CCO)nc12` [DINACICLIB], the Kd (in experiment [1]; on Ephrin type-A receptor 1; at Ephrin type-A receptor 7; in [3]; in [5]; in experiment [6]) was > 30 µM (inactive) throughout. In addition, the Kd in experiment [9], in [8] and in experiment [10] was > 30 µM (inactive) in each case.
Regarding `OCCn1cc(-c2cnc3nnn(Cc4ccc5ncccc5c4)c3n2)cn1` [PF-04217903], the Kd (in [1]; at Ephrin type-A receptor 1; at Ephrin type-A receptor 7; in experiment [3]; in experiment [5]; in experiment [6]) was > 30 µM (inactive) in each case. The Kd in experiment [9], in experiment [8] and in experiment [10] was > 30 µM (inactive) each time.
Regarding `CCn1c(=O)c(-c2cc[nH]n2)cc2c(C)nc(N)nc21` [VOXTALISIB], the Kd (at Ephrin type-A receptor 1; in [4]; in experiment [6]; in experiment [7]; in experiment [9]; in experiment [8]) was > 30 µM (inactive) throughout. Also, in experiment [10], the Kd is > 30 µM (inactive).
In the case of `CN1CCC(CNc2ccc3ncc(-c4cccc(OC(F)(F)F)c4)n3n2)CC1` [SGI-1776], the Kd (at Ephrin type-A receptor 1; at Ephrin type-A receptor 7; in experiment [3]; in experiment [4]; in [5]; in experiment [7]) was > 30 µM (inactive) in each case. Also, the Kd in [9], in [8] and in experiment [10] was > 30 µM (inactive) in each case.
As for `COC(=O)[C@@]1(O)C[C@H]2O[C@]1(C)n1c3ccccc3c3c4c(c5c6ccccc6n2c5c31)C(=O)NC4` [K-252A], the Kd was > 30 µM (inactive) in experiment [1]; 0.015 µM (active) in [2]; > 30 µM (inactive) at Ephrin type-A receptor 1; > 30 µM (inactive) on Ephrin type-A receptor 7; > 30 µM (inactive) in [5]; > 30 µM (inactive) in [6]. The Kd in [8] and in experiment [10] was > 30 µM (inactive) in each case. Besides, in [3], the pKd is 8.52.
`O=C(c1ccc(F)c(F)c1Nc1ccc(I)cc1F)N1CC(O)([C@@H]2CCCCN2)C1` [COBIMETINIB]: the Kd (in [2]; on Ephrin type-A receptor 1; at Ephrin type-A receptor 7; in [3]; in experiment [4]; in experiment [5]) was > 30 µM (inactive) in each case. Further, the Kd in experiment [6], in [7], in [8] and in [10] was > 30 µM (inactive) each time.
